Measured values published in patent publication US9617262B2, “Antibacterial cyclopental[C]pyrrole substituted 3,4-dihydro-1H-[1,8]naphthyridinones” (Janssen Sciences Ireland UC, priority 2011, dated 2017).
In brackets after ≈: the same amount, converted by molar mass.

Experiments:
[1] = In vivo pharmacokinetic and oral bioavailability; details: male Swiss mice
Procedure: The in vivo pharmacokinetics and oral bioavailability of the compound of the examples was/is investigated in male Swiss mice (fed) following single intravenous (i.v.) bolus and oral (p.o.) administration. For the i.v. and p.o. solution formulations, the compound was/is dissolved in a 20% HP-β-CD solution. The pH of the formulations was/is around pH 4. All i.v. formulations were isotonic.

[2] = tested on: Staphylococcus aureus NRS121; LZD-R; assay: Antimicrobial spectrum, broth microdilution MIC; format: cell-based; details: S. aureus NRS121
Procedure: (§1) Minimum Inhibitory Concentrations (MICs) were determined in accordance with the Clinical and Laboratory Standards Institute (CLSI) methodology against aerobic bacteria (CLSI M07-A8) (see Clinical and Laboratory Standards Institute. 2009. Methods for dilution antimicrobial susceptibility tests for bacteria that grow aerobically. CLSI document M07-A8, Vol. 29, No. 2.) by the broth microdilution method with cation-adjusted Mueller-Hinton broth (CA-MHB) medium for the majority of organisms, except for Haemophilus influenza, where Haemophilis test medium (HTM) broth was used. Descriptions of the individual organisms can be found in the table. Where possible, ATCC standard strains were tested.
(§2) The inoculum density for the susceptibility testing was standardized to give a final inoculum of approximately 5×10^5 CFU/mL.
(§3) Stock solutions of the compounds were prepared in DMSO at concentrations of 1 mg/mL. Linezolid was prepared in DMSO at a concentration of 2 mg/mL. Stock solutions of all compounds were diluted into CA-MHB to give a range of two-fold dilutions, depending upon the sensitivity of the organism being tested.

[3] = tested on: Staphylococcus aureus NRS120; LZD-R; assay: Antimicrobial spectrum, broth microdilution MIC; format: cell-based; details: S. aureus NRS120
Procedure: as §1, §2, §3

[4] = tested on: Moraxella catarrhalis ATCC 8176; b-lactamase negative; assay: Antimicrobial spectrum, broth microdilution MIC; format: cell-based; details: M. catarrhalis ATCC 8176
Procedure: as §1, §2, §3

[5] = tested on: Escherichia coli ATCC 25922; reference strain; assay: Antimicrobial spectrum, broth microdilution MIC; format: cell-based; details: E. coli ATCC 25922
Procedure: as §1, §2, §3

[6] = tested on: Staphylococcus aureus NRS119; LZD-R; assay: Antimicrobial spectrum, broth microdilution MIC; format: cell-based; details: S. aureus NRS119
Procedure: as §1, §2, §3

[7] = tested on: Haemophilus influenzae ATCC 49247; reference strain; assay: Antimicrobial spectrum, broth microdilution MIC; format: cell-based; details: H. influenza ATCC 49247
Procedure: as §1, §2, §3

[8] = tested on: Staphylococcus aureus ATCC 29213; reference strain MSSA; assay: Antimicrobial spectrum, broth microdilution MIC; format: cell-based; details: S. aureus ATCC 29213
Procedure: as §1, §2, §3

[9] = tested on: Escherichia coli Tol C mutant; assay: Antimicrobial spectrum, broth microdilution MIC; format: cell-based; details: E. coli tolC mutant
Procedure: as §1, §2, §3

[10] = tested on: Staphylococcus aureus ATCC 43300; reference strain MRSA; assay: Antimicrobial spectrum, broth microdilution MIC; format: cell-based; details: S. aureus ATCC 43300
Procedure: as §1, §2, §3

[11] = tested on: Methicillin-sensitive Staphylococcus aureus strain ATCC 29213; assay: In vivo efficacy, peritonitis model of S. aureus infection; details: IV, 20% CD + 2H2T, IP infection, inoculum 8.7 log10, female Swiss albino mice, 3 days post-infection
Source text: The concept of studying the in vivo effect of an antibacterial compound by treating intraperitoneally infected mice was introduced in 1911 for optochin against pneumococci (Morgenroth and Levy, 1911). The popularity of the model comes from the ease of its use with short-duration experiments, reproducible infections and simple end-points.
Methicillin-sensitive Staphylococcus aureus strain ATCC 29213 was used to infect female Swiss albino mice. A Brain Heart Infusion (BHI) broth bacterial culture was inoculated the day before infection, incubated at 37° C. overnight and diluted in fresh BHI broth to the desired concentration. I.p. injection of ˜5×10^8-5×10^9 colony forming units (CFU) was performed in either of the lateral lower quadrants of the abdomen. After inoculation, mice were kept in their cages under daily observation for development of signs of infection or death. For the treatment of mice, both the p.o. and i.v. routes were used and each mouse was treated individually by gavage or by i.v. injection. Both solutions (p.o. and i.v.) and suspensions (p.o.) were tested in this model. The parameter used for monitoring the course of infection and the effect of treatment was death or survival of the animals over 3 days post-infection. […]

In the case of `O=C1CCc2cc(/C=C/C(=O)N3C[C@@H]4CC(c5ccccc5)=C[C@@H]4C3)cnc2N1` (single isomer, unassigned) [compound 14], the AUC0-inf ([1]; i.v. 2.5 mg/kg) is reported as 7464 ng·h/mL, the “Half life (t1/2)” value ([1]; i.v. 2.5 mg/kg) is reported as 2.7 h and the “Plasma clearance Cl” value ([1]; i.v. 2.5 mg/kg) is reported as 0.33 L/h/kg. It also gave a Vdz ([1]; i.v. 2.5 mg/kg) of 1.3 L/kg, a C0 ([1]; i.v. 2.5 mg/kg, 20% HP-β-CD solution) of 2929 ng/mL and an Oral bioavailability ([1]; p.o. 10 mg/kg vs i.v. 2.5 mg/kg) of 72%. For the same compound, the AUC0-inf ([1]; p.o. 10 mg/kg) was 21394 ng·h/mL, the Cmax ([1]; p.o. 10 mg/kg) was 2950 ng/mL and the “Half life (t1/2)” value ([1]; p.o. 10 mg/kg) was 3.2 h. It also gave a Tmax ([1]; p.o. 10 mg/kg) of 2.0 h, an MIC90 [2] of 0.03 µg/mL (≈ 0.0778 µM) and an MIC90 [3] of 0.03 µg/mL (≈ 0.0778 µM). The MIC90 [4] was 0.015 µg/mL (≈ 0.0389 µM), the MIC90 [5] was 4 µg/mL (≈ 10.4 µM) and the MIC90 [6] was 0.03 µg/mL (≈ 0.0778 µM). It also gave an MIC90 [7] of 0.25 µg/mL (≈ 0.649 µM), an MIC90 [8] of 0.03 µg/mL (≈ 0.0778 µM) and an MIC90 [9] of 0.25 µg/mL (≈ 0.649 µM). The MIC90 [10] was 0.03 µg/mL (≈ 0.0778 µM), the “% Survival” value ([11]; QD 2.5 mpk) was 75% and the “% Survival” value ([11]; QD 5 mpk) was 100%.
